Laboratory results published in US9492471B2, “Methods of treating a disease or disorder associated with Bruton'S Tyrosine Kinase” (Celgene Avilomics Research, Inc., priority 2013, dated 2016).
Where two headings read alike, the source gives them in different places.

Experiments:
Assay in all cases: HotSpot kinase profiling
Format in all cases: biochemical
FGR = target: T1, FGR (Homo sapiens, UniProt P09769)
T1 construct: purchased Reaction Biology Corp
In short: (§1)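 Radio-isotope P81 filtration format. Substrate + required cofactors in reaction buffer, kinase added, 2 h RT. Stop, wash with 0.1% phosphoric acid, detect. % inhibition vs DMSO; mean of duplicates where repeated.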

ALK4/ACVR1B = target: T2, ALK4/ACVR1B (Homo sapiens, UniProt P36896)
T2 construct: purchased Reaction Biology Corp
T2 sequence (P36896 24-505): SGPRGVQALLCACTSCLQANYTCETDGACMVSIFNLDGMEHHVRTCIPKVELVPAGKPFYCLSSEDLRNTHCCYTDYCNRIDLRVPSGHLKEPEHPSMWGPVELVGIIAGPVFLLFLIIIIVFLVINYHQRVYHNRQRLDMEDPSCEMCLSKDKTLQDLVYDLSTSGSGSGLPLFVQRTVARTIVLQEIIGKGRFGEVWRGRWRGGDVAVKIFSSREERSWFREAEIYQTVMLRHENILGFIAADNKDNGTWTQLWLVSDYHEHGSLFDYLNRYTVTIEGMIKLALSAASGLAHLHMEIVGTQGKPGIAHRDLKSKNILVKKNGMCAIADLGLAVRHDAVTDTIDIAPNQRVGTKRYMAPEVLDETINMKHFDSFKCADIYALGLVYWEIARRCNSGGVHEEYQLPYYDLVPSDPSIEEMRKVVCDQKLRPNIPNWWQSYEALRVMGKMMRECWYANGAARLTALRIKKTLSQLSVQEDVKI
In short: as §1

CK2a2 = target: T3, CK2a2 (Homo sapiens, UniProt P19784)
T3 construct: purchased Reaction Biology Corp
T3 sequence (P19784 whole entry): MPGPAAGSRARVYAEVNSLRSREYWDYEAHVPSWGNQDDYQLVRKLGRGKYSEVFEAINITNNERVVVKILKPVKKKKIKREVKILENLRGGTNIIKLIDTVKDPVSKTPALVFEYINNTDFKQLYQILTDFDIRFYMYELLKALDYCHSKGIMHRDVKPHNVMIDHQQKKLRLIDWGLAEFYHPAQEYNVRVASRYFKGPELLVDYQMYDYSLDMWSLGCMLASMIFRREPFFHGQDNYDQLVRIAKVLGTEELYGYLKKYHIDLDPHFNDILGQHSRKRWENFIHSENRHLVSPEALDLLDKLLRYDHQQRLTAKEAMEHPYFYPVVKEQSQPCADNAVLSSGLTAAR
In short: as §1

PKG2/PRKG2 = target: T4, PKG2/PRKG2 (Homo sapiens, UniProt Q13237)
T4 construct: purchased Reaction Biology Corp
T4 sequence (Q13237 1-762): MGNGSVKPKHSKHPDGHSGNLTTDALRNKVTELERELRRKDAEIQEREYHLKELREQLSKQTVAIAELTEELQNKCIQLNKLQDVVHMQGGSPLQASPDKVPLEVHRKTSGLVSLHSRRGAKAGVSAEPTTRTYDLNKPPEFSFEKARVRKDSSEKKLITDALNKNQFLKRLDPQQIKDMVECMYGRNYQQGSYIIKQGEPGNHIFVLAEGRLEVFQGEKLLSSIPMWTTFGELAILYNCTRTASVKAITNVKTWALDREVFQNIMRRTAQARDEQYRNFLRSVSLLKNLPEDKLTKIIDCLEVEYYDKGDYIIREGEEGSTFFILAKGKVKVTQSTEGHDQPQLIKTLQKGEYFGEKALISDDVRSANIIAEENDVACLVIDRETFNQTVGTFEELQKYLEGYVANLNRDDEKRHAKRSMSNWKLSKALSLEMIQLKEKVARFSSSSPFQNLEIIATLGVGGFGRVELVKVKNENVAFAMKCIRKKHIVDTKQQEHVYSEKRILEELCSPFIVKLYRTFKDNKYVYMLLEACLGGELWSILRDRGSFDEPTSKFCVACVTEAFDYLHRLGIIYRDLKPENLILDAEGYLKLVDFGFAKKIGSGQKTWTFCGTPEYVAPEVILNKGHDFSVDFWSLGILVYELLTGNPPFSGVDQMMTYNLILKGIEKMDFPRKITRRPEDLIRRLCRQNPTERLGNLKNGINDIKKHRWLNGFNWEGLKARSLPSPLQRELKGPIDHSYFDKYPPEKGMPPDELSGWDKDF
In short: as §1

PLK2 = target: T5, PLK2 (Homo sapiens, UniProt Q9NYY3)
T5 construct: purchased Reaction Biology Corp
T5 sequence (Q9NYY3 whole entry): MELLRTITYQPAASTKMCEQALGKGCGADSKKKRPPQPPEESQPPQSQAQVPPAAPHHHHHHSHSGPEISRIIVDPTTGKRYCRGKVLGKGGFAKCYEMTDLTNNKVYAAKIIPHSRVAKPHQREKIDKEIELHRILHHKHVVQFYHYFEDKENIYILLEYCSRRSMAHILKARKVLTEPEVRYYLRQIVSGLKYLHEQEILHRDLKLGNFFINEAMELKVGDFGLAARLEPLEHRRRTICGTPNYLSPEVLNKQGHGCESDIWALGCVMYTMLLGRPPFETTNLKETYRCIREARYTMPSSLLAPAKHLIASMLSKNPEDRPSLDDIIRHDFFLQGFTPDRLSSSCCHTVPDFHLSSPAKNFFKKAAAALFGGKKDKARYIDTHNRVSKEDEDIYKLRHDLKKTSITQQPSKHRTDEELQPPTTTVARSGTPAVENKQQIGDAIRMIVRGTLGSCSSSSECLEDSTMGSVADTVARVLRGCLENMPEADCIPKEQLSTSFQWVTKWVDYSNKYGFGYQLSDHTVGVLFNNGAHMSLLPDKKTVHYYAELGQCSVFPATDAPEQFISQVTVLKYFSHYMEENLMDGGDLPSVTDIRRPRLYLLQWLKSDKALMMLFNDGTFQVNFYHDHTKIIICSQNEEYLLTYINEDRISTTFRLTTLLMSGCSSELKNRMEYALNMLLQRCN
In short: as §1

TAK1 = target: T6, TAK1 (Homo sapiens, UniProt O43318)
T6 construct: purchased Reaction Biology Corp
T6 sequence (O43318 1-303 limits assumed): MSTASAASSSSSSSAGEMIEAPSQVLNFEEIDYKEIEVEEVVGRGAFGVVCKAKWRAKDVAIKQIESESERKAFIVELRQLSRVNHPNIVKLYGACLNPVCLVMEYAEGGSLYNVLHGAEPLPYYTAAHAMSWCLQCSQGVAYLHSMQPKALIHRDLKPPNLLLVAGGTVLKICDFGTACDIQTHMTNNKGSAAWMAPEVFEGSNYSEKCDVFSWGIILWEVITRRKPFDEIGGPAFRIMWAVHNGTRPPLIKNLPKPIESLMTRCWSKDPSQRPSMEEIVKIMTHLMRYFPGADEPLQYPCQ
In short: as §1

MEK3 = target: T7, MEK3 (Homo sapiens, UniProt P46734)
T7 construct: purchased Reaction Biology Corp
T7 sequence (P46734 1-347): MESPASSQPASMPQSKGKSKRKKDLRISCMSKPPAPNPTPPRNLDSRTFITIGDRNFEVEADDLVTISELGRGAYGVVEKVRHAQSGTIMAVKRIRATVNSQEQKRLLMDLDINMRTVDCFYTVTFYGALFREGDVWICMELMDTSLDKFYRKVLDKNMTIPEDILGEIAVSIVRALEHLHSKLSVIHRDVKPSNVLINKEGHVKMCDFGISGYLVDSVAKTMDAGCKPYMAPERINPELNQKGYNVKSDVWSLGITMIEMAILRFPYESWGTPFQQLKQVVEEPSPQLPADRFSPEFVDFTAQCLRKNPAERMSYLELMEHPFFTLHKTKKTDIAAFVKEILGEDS
In short: as §1

[1] = read-out: % Enzyme Activity (relative to DMSO controls) Run 1
[2] = read-out: % Enzyme Activity (relative to DMSO controls) Run 2

T1 sequence (P09769 whole entry): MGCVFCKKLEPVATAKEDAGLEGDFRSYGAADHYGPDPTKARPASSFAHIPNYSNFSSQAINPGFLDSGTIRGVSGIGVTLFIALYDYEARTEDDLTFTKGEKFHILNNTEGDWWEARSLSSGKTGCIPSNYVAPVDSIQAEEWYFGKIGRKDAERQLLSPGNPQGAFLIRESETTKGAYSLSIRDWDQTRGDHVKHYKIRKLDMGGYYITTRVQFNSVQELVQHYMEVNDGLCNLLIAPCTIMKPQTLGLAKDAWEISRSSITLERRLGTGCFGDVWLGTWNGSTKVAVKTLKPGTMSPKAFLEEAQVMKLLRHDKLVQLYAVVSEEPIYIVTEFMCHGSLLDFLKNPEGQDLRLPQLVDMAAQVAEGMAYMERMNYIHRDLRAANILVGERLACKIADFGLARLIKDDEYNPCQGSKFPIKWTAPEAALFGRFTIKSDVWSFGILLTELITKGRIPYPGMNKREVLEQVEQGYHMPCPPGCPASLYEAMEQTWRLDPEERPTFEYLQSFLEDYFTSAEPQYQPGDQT

## C=CC(=O)Nc1cccc(Nc2nc(Nc3ccc(OCCOC)c(F)c3)ncc2F)c1 [Compound 2]
FGR
  inhibition at 3 µM: 59.9%
FGR; [1]
  remaining activity at 3 µM: 39.7%
FGR; [2]
  remaining activity at 3 µM: 40.5%
ALK4/ACVR1B
  inhibition at 3 µM: -42.2%
ALK4/ACVR1B; [1]
  remaining activity at 3 µM: 141%
ALK4/ACVR1B; [2]
  remaining activity at 3 µM: 144%
CK2a2
  inhibition at 3 µM: -1.81%
CK2a2; [1]
  remaining activity at 3 µM: 98.2%
CK2a2; [2]
  remaining activity at 3 µM: 105%
PKG2/PRKG2
  inhibition at 3 µM: 14.2%
PKG2/PRKG2; [1]
  remaining activity at 3 µM: 87.2%
PKG2/PRKG2; [2]
  remaining activity at 3 µM: 84.5%
PLK2
  inhibition at 3 µM: 13.3%
PLK2; [1]
  remaining activity at 3 µM: 86.6%
PLK2; [2]
  remaining activity at 3 µM: 86.7%
TAK1
  inhibition at 3 µM: 27.3%
TAK1; [1]
  remaining activity at 3 µM: 73.4%
TAK1; [2]
  remaining activity at 3 µM: 72%
MEK3
  inhibition at 3 µM: -15.3%
MEK3; [1]
  remaining activity at 3 µM: 117%
MEK3; [2]
  remaining activity at 3 µM: 113%
